Reference: ChEMBL document CHEMBL4229345, “Inhibition of trypanosome alternative oxidase without its N-terminal mitochondrial targeting signal (ΔMTS-TAO) by cationic and non-cationic 4-hydroxybenzoate and 4-alkoxybenzaldehyde derivatives active against T. brucei and T. congolense” (Eur J Med Chem, 2018)
In brackets after ≈: the same amount, converted by molar mass. Activity calls are given as the source filed them. No cut-off for these calls is given here.

Legend:
[1] = Inhibition of recombinant N-terminal His6 tagged SUMO-fused Trypanosoma brucei brucei TC221 TAO MTS deletion mutant expressed in Escherichia coli FN102 preincubated for 2 mins followed by ubiquinol-1 addition measured over 2 mins by double beam-dual wavelength UV-spectrophotometry
[2] = system: Trypanosoma brucei brucei; test: Anti-parasitic activity against bloodstream trypomastigote stage of wild-type Trypanosoma brucei brucei Lister 427 after 48 hrs in presence of 5 mM glycerol by resazurin-based assay; format: functional, organism-based; conditions: Lister 427, 48 h
[3] = system: Trypanosoma brucei brucei; test: Anti-parasitic activity against bloodstream trypomastigote stage of wild-type Trypanosoma brucei brucei Lister 427; format: functional
[4] = Non-competitive inhibition of Trypanosoma brucei brucei TC221 TAO expressed in Escherichia coli FN102 assessed as reduction in ubiquinoldependent oxygen consumption by spectrophotometry
[5] = Noncompetitive inhibition of recombinant N-terminal His6 tagged SUMO-fused Trypanosoma brucei brucei TC221 TAO MTS deletion mutant expressed in Escherichia coli FN102 preincubated for 2 mins followed by ubiquinol-1 addition measured over 2 mins by Lineweaver-Burk plot analysis
[6] = system: Trypanosoma brucei brucei; test: Anti-parasitic activity against bloodstream trypomastigote stage of wild-type Trypanosoma brucei brucei Lister 427 after 48 hrs by resazurin-based assay; format: functional, organism-based; conditions: Lister 427, 48 h
Trypanosoma congolense [7] = test: Anti-parasitic activity against bloodstream form of Trypanosoma congolense IL3000 after 48 hrs by resazurin-based assay; format: functional, organism-based; conditions: IL3000, 48 h
[8] = system: Trypanosoma brucei brucei; test: Resistance factor, ratio of EC50 for bloodstream trypomastigote stage of wild-type Trypanosoma brucei brucei Lister 427 in presence of 5 mM glycerol to EC50 for bloodstream trypomastigote stage of wild-type Trypanosoma brucei brucei Lister 427; format: functional
[9] = Cytotoxicity against HEK cells assessed as reduction in cell viability after 30 hrs by resazurin-based assay; conditions: human
[10] = system: Trypanosoma brucei brucei; test: Anti-parasitic activity against bloodstream trypomastigote stage of Trypanosoma brucei brucei with AQP2/3-dd knock out after 48 hrs by resazurin-based assay; format: functional, organism-based
[11] = system: Trypanosoma brucei brucei; test: Anti-parasitic activity against bloodstream trypomastigote stage of Trypanosoma brucei brucei with AQP triple knock out after 48 hrs by resazurin-based assay; format: functional, organism-based
Trypanosoma brucei = test: Anti-parasitic activity against bloodstream trypomastigote stage of pentamidine/diminazene/melaminophenyl arsenical resistant Trypanosoma brucei B48 after 48 hrs by resazurin-based assay; format: functional, organism-based; conditions: B48, 48 h
[12] = system: Trypanosoma brucei brucei; test: Resistance factor, ratio of EC50 for bloodstream trypomastigote stage of Trypanosoma brucei brucei with AQP2/3-dd knock out to EC50 for bloodstream trypomastigote stage of wild-type Trypanosoma brucei brucei Lister 427; format: functional
[13] = system: Trypanosoma brucei brucei; test: Resistance factor, ratio of EC50 for bloodstream trypomastigote stage of Trypanosoma brucei brucei AQP triple knock out to EC50 for bloodstream trypomastigote stage of wild-type Trypanosoma brucei brucei Lister 427; format: functional
[14] = Resistance factor, ratio of EC50 for bloodstream trypomastigote stage of pentamidine/diminazene/melaminophenyl arsenical resistant Trypanosoma brucei B48 to EC50 for bloodstream trypomastigote stage of wild-type Trypanosoma brucei brucei Lister 427; format: functional
[15] = Selectivity index, ratio of CC50 for HEK cells to EC50 for bloodstream trypomastigote stage of wild-type Trypanosoma brucei brucei Lister 427; format: toxicity; conditions: human, read-out: Ratio CC50/EC50
[16] = Selectivity index, ratio of CC50 for HFF cells to EC50 for bloodstream trypomastigote stage of wild-type Trypanosoma brucei brucei Lister 427; format: toxicity; conditions: human, read-out: Ratio CC50/EC50
[17] = Selectivity index, ratio of CC50 for HEK cells to EC50 for bloodstream form of Trypanosoma congolense IL3000; format: toxicity; conditions: human, read-out: Ratio CC50/EC50
[18] = Stability in horse serum assessed as compound receovery after 24 hrs by LC/MS analysis; format: ADME, cell-free, Equus caballus; conditions: read-out: Drug recovery
[19] = Competitive inhibition of recombinant N-terminal His6 tagged SUMO-fused Trypanosoma brucei brucei TC221 TAO MTS deletion mutant expressed in Escherichia coli FN102 preincubated for 2 mins followed by ubiquinol-1 addition measured over 2 mins by Lineweaver-Burk plot analysis
[20] = Cytotoxicity against HFF cells assessed as reduction in cell viability after 30 hrs by resazurin-based assay; conditions: human
[21] = Selectivity index, ratio of CC50 for HFF cells to EC50 for bloodstream form of Trypanosoma congolense IL3000; format: toxicity; conditions: human, read-out: Ratio CC50/EC50
[22] = system: Trypanosoma brucei brucei; test: Potency index, ratio of diminazene EC50 to test compound EC50 for anti-parasitic activity against bloodstream trypomastigote stage of wild-type Trypanosoma brucei brucei Lister 427; format: functional
Trypanosoma congolense [23] = test: Potency index, ratio of diminazene EC50 to test compound EC50 for anti-parasitic activity against bloodstream form of Trypanosoma congolense IL3000; format: functional
[24] = Drug metabolism in human liver S9 fraction assessed as CYP450 mediated compound hydrolysis by measuring parent compound remaining at 5 uM measured immediately in presence of NADPH by RP-HPLC analysis; format: ADME, subcellular; conditions: read-out: Stability
[25] = Drug metabolism in human liver S9 fraction assessed as CYP450 mediated compound hydrolysis by measuring parent compound remaining at 5 uM measured after 15 mins in presence of NADPH by RP-HPLC analysis; format: ADME, subcellular; conditions: read-out: Stability
[26] = Drug metabolism in human liver S9 fraction assessed as CYP450 mediated compound hydrolysis by measuring parent compound remaining at 5 uM measured after 30 mins in presence of NADPH by RP-HPLC analysis; format: ADME, subcellular; conditions: read-out: Stability
[27] = Drug metabolism in human liver S9 fraction assessed as CYP450 mediated compound hydrolysis by measuring parent compound remaining at 5 uM measured after 60 mins in presence of NADPH by RP-HPLC analysis; format: ADME, subcellular; conditions: read-out: Stability
[28] = Drug metabolism in human liver S9 fraction assessed as CYP450 mediated compound hydrolysis by measuring parent compound remaining at 5 uM measured after 120 mins in presence of NADPH by RP-HPLC analysis; format: ADME, subcellular; conditions: read-out: Stability
[29] = Drug metabolism in human liver microsomes assessed as CYP450 mediated compound hydrolysis by measuring parent compound remaining at 5 uM measured immediately in presence of NADPH by RP-HPLC analysis; format: ADME; conditions: read-out: Stability
[30] = Drug metabolism in human liver microsomes assessed as CYP450 mediated compound hydrolysis by measuring parent compound remaining at 5 uM measured after 15 mins in presence of NADPH by RP-HPLC analysis; format: ADME; conditions: read-out: Stability
[31] = Drug metabolism in human liver microsomes assessed as CYP450 mediated compound hydrolysis by measuring parent compound remaining at 5 uM measured after 30 mins in presence of NADPH by RP-HPLC analysis; format: ADME; conditions: read-out: Stability
[32] = Drug metabolism in human liver microsomes assessed as CYP450 mediated compound hydrolysis by measuring parent compound remaining at 5 uM measured after 60 mins in presence of NADPH by RP-HPLC analysis; format: ADME; conditions: read-out: Stability
[33] = Drug metabolism in human liver microsomes assessed as CYP450 mediated compound hydrolysis by measuring parent compound remaining at 5 uM measured after 120 mins in presence of NADPH by RP-HPLC analysis; format: ADME; conditions: read-out: Stability
[34] = Drug metabolism in human liver S9 fraction assessed as UGT mediated compound hydrolysis by measuring parent compound remaining at 5 uM measured immediately in presence of UDPGA by RP-HPLC analysis; format: ADME, subcellular; conditions: read-out: Stability
[35] = Drug metabolism in human liver S9 fraction assessed as UGT mediated compound hydrolysis by measuring parent compound remaining at 5 uM measured after 15 mins in presence of UDPGA by RP-HPLC analysis; format: ADME, subcellular; conditions: read-out: Stability
[36] = Drug metabolism in human liver S9 fraction assessed as UGT mediated compound hydrolysis by measuring parent compound remaining at 5 uM measured after 30 mins in presence of UDPGA by RP-HPLC analysis; format: ADME, subcellular; conditions: read-out: Stability
[37] = Drug metabolism in human liver S9 fraction assessed as UGT mediated compound hydrolysis by measuring parent compound remaining at 5 uM measured after 60 mins in presence of UDPGA by RP-HPLC analysis; format: ADME, subcellular; conditions: read-out: Stability
[38] = Drug metabolism in human liver S9 fraction assessed as UGT mediated compound hydrolysis by measuring parent compound remaining at 5 uM measured after 120 mins in presence of UDPGA by RP-HPLC analysis; format: ADME, subcellular; conditions: read-out: Stability
[39] = Stability in mouse serum assessed as compound hydrolysis after 24 hrs by LC/MS analysis; format: ADME, cell-free; conditions: read-out: Drug degradation
[40] = Stability in horse serum assessed as compound hydrolysis after 24 hrs by LC/MS analysis; format: ADME, cell-free, Equus caballus; conditions: read-out: Drug degradation
[41] = system: Trypanosoma brucei rhodesiense; test: (§1) In vivo anti-parasitic activity against luciferase tagged Trypanosoma brucei rhodesiense STIB900 infected in NMRI mouse assessed as reduction in parasitemia at 10 mg/kg, ip for 4 consecutive days starting at day 3 post infection and measured after last treatment on day 7 (reference value: 0%); format: functional; set-up: scale not given: the % may be the effect or the level left
[42] = system: Trypanosoma brucei rhodesiense; test: as §1, with “measured 3 days hrs” for “measured”, “10” for “7”; format: functional; set-up: scale not given: the % may be the effect or the level left
[43] = system: Trypanosoma brucei rhodesiense; test: In vivo anti-parasitic activity against luciferase tagged Trypanosoma brucei rhodesiense STIB900 infected in NMRI mouse assessed as cured mouse at 10 mg/kg, ip for 4 consecutive days starting at day 3 post infection; format: functional, organism-based

C/C(=C\Cc1c(O)c(Cl)c(C)c(C=O)c1O)CC/C=C(\C)[C@@H]1CC(=O)C(C)(C)O1 [ASCOFURANONE]
IC50 [1]: 2 nM
MIC [2]: 30 µM
MIC [3]: 250 µM (≈ 105 µg/mL)
Ki [4]: 2.38 nM

O=COCCCCCCCCCCCCCCCCOC(=O)c1ccc(O)cc1O
IC50 [1]: 14.4 nM
Ki [5]: 71.4 nM
EC50 [6]: 11900 nM
EC50 [2]: 5100 nM
EC50 (Trypanosoma congolense [7]): > 100000 nM
Ratio EC50 [8]: 0.43
CC50 at 30 h [9]: > 400000 nM
EC50 [10]: 5000 nM
EC50 [11]: 1270 nM
EC50 (Trypanosoma brucei): 13000 nM
Ratio EC50 [12]: 0.42
Ratio EC50 [13]: 0.11
Ratio EC50 [14]: 1.1
selectivity ratio [15]: > 34

O=C(OCCCCCCCCCCCCBr)c1ccc(O)cc1O
IC50 [1]: 17.4 nM
EC50 [2]: 6200 nM
Ratio EC50 [8]: 0.42
CC50 at 30 h [9]: > 400000 nM
EC50 [10]: 10000 nM
EC50 [11]: 4700 nM
Ratio EC50 [12]: 0.69
Ratio EC50 [13]: 0.32
Ratio EC50 [14]: 1.03
selectivity ratio [16]: > 27
selectivity ratio [17]: > 7.7

COc1ccc([C@@H]2Sc3ccccc3N(CCN(C)C)C(=O)[C@@H]2OC(C)=O)cc1 [DILTIAZEM]
remaining at 24 h [18]: 1%

Cc1cc(O)cc(O)c1C(=O)OCCCCCCCCCCCCCC[P+](c1ccccc1)(c1ccccc1)c1ccccc1.[Br-]
IC50 [1]: 88 nM
Ki [19]: 870 nM
EC50 [6]: 1.6 nM
EC50 [2]: 1.4 nM
EC50 (Trypanosoma congolense [7]): 5 nM
Ratio EC50 [8]: 0.92
CC50 at 30 h [20]: > 200000 nM
EC50 [10]: 0.8 nM
EC50 [11]: 1.4 nM
EC50 (Trypanosoma brucei): 1.9 nM
Ratio EC50 [12]: 0.51
Ratio EC50 [13]: 0.89
Ratio EC50 [14]: 1.2
selectivity ratio [16]: > 125000
selectivity ratio [21]: > 40000
Ratio EC50 [22]: 5 - 40
Ratio EC50 (Trypanosoma congolense [23]): 5 - 40
remaining at 0 min, 5 µM [24]: 100%
remaining at 0.25 h, 5 µM [25]: 92.3%
remaining at 0.5 h, 5 µM [26]: 101%
remaining at 1 h, 5 µM [27]: 96.4%
remaining at 2 h, 5 µM [28]: 94.1%
remaining at 0 min, 5 µM [29]: 100%
remaining at 0.25 h, 5 µM [30]: 93.4%
remaining at 0.5 h, 5 µM [31]: 86%
remaining at 1 h, 5 µM [32]: 93.4%
remaining at 2 h, 5 µM [33]: 93.1%
remaining at 0 min, 5 µM [34]: 100%
remaining at 0.25 h, 5 µM [35]: 79.4%
remaining at 0.5 h, 5 µM [36]: 66.9%
remaining at 1 h, 5 µM [37]: 58.2%
remaining at 2 h, 5 µM [38]: 52.6%
metabolised at 24 h [39]: < 20%
metabolised at 24 h [40]: < 30%
Activity [41]: 94.7%
Activity [42]: 27.9%
Activity [43]: inactive
